Calls of active or inactive are those of the source. No rule for the calls is given here.

This series deals with rodent carcinogenicity bioassays, tumor incidence. The series can be described thus: CCRIS carcinogenicity studies. Summed up:
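Archive of carcinogenicity, mutagenicity, tumor promotion and tumor inhibition results drawn from journals, NCI reports and other sources, expert-reviewed; covers 1985-2011 and is no longer updated.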

In the case of `c1ccc2c(c1)[nH]c1ccccc12`, the carcinogen call (Species: MOUSE, Strain/Sex: B6C3F1/FEMALE, Route: ORAL, Dose: 0.15, 0.3, 0.6% IN DIET FOR 96 WK, Dose: 0.15, 0.3, 0.6% IN DIET FOR 96 WK, Tumor Site: Type of Lesion: LIVER: HEPATOCELLULAR CARCINOMA) is “active; positive”; the carcinogen call (Species: MOUSE, Strain/Sex: B6C3F1/MALE, Route: ORAL, Dose: 0.15, 0.3, 0.6% IN DIET FOR 96 WK, Dose: 0.15, 0.3, 0.6% IN DIET FOR 96 WK, Tumor Site: Type of Lesion: FORESTOMACH: PAPILLOMA, SQUAMOUS CELL CARCINOMA, LIVER: HEPATOCELLULAR CARCINOMA) was “active; positive”; the carcinogen call (Species: MOUSE, Strain/Sex: CD-1/FEMALE, Route: INTRAPERITONEAL, Dose: 0, 1.75 UMOL/MOUSE (TOTAL DOSE) ADMINISTERED DURING DAYS 1, 8, AND 15 OF LIFE (STUDY DURATION: 52 WK)) was “inactive; negative”; the carcinogen call (Species: MOUSE, Strain/Sex: CD-1/MALE, Route: INTRAPERITONEAL, Dose: 0, 1.75 UMOL/MOUSE (TOTAL DOSE) ADMINISTERED DURING DAYS 1, 8, AND 15 OF LIFE (STUDY DURATION: 52 WK)) is “inactive; negative”.
As to `Cc1cnc(C2=NC(C)(C(C)C)C(=O)N2)c(C(=O)O)c1` (centres undefined), the carcinogen call is, setting by setting: (Species: Mouse, Strain/Sex: CD-1[Crl(ICR)BR]/Female (55/Group), Route: Oral, Dose: 0, 1750, 3500, 7000 ppm of 96.9% imazapic in diet for 18 mo, study duration 18 mo, Dose: 0, 1750, 3500, 7000 ppm of 96.9% imazapic in diet for 18 mo, study duration 18 mo) “inactive; negative”; (Species: Mouse, Strain/Sex: CD-1[Crl(ICR)BR]/Male (55/Group), Route: Oral, Dose: 0, 1750, 3500, 7000 ppm of 96.9% imazapic in diet for 18 mo, study duration 18 mo, Dose: 0, 1750, 3500, 7000 ppm of 96.9% imazapic in diet for 18 mo, study duration 18 mo) “inactive; negative”; (Species: Rat, Strain/Sex: Crl:CD(SD)BR/Female (55/Group), Route: Oral, Dose: 0, 5000, 10,000, 20,000 ppm of 96.4% imazapic in diet for 24 mo, study duration 24 mo, Dose: 0, 5000, 10,000, 20,000 ppm of 96.4% imazapic in diet for 24 mo, study duration 24 mo) “inactive; negative”; (Species: Rat, Strain/Sex: Crl:CD(SD)BR/Male (55/Group), Route: Oral, Dose: 0, 5000, 10,000, 20,000 ppm of 96.4% imazapic in diet for 24 mo, study duration 24 mo, Dose: 0, 5000, 10,000, 20,000 ppm of 96.4% imazapic in diet for 24 mo, study duration 24 mo) “inactive; negative”.
For `CC1(C)C(C(=O)OC(C#N)c2cccc(Oc3ccccc3)c2)C1(C)C` (centres undefined), the carcinogen call (Species: Mouse, Strain/Sex: CD-1/Female (52/Group), Dose: 0, 40, 150, 600 ppm of 91.4 - 92.5 % fenpropathrin in diet for 2 yr, study duration 2 yr, Dose: 0, 40, 150, 600 ppm of 91.4 - 92.5 % fenpropathrin in diet for 2 yr, study duration 2 yr) is “inactive; negative”; the carcinogen call (Species: Mouse, Strain/Sex: CD-1/Male (52/Group), Dose: 0, 40, 150, 600 ppm of 91.4 - 92.5 % fenpropathrin in diet for 2 yr, study duration 2 yr, Dose: 0, 40, 150, 600 ppm of 91.4 - 92.5 % fenpropathrin in diet for 2 yr, study duration 2 yr) was “inactive; negative”; the carcinogen call (Species: Rat, Strain/Sex: CD/Female (50/Group), Route: Oral, Dose: 0, 50, 150, 450 ppm of 91.4-92.5% fenpropathrin in diet for >52 wk, study duration up to 2 yr, Dose: 0, 50, 150, 450 ppm of 91.4-92.5% fenpropathrin in diet for >52 wk, study duration up to 2 yr) was “inactive; negative”; the carcinogen call (Species: Rat, Strain/Sex: CD/Male (50/Group), Route: Oral, Dose: 0, 50, 150, 450 ppm of 91.4-92.5% fenpropathrin in diet for >52 wk, study duration up to 2 yr, Dose: 0, 50, 150, 450 ppm of 91.4-92.5% fenpropathrin in diet for >52 wk, study duration up to 2 yr) is “inactive; negative”.
With `Oc1cc(Cl)ccc1Oc1ccc(Cl)cc1Cl`, the carcinogen call is “inactive; negative (study details not given in source; purity 99.5%)” (Species: Hamster, Strain/Sex: Bio FID Alexander Syrian/Female (60/group), Route: Oral, Dose: 0, 12.5, 75, 250 mg/kg in diet for 90-95 wk, Dose: 0, 12.5, 75, 250 mg/kg in diet for 90-95 wk); “inactive; negative (study details not given in source; purity 99.5%)” (Species: Hamster, Strain/Sex: Bio FID Alexander Syrian/Male (60/group), Route: Oral, Dose: 0, 12.5, 75, 250 mg/kg in diet for 90-95 wk, Dose: 0, 12.5, 75, 250 mg/kg in diet for 90-95 wk); “inactive; negative (study details not given in source; purity 99%)” (Species: Rat, Strain/Sex: Sprague-Dawley/Female (60/group), Route: Oral, Dose: 0, 300, 1,200, 3,000 ppm in diet for 78 wk, Dose: 0, 300, 1,200, 3,000 ppm in diet for 78 wk); “inactive; negative (study details not given in source; purity 99%)” (Species: Rat, Strain/Sex: Sprague-Dawley/Male (60/group), Route: Oral, Dose: 0, 300, 1,200, 3,000 ppm in diet for 78 wk, Dose: 0, 300, 1,200, 3,000 ppm in diet for 78 wk).
As for `Nc1ccc([N+](=O)[O-])cc1O`, the carcinogen call is, setting by setting: (Species: MOUSE, Strain/Sex: B6C3F1/FEMALE, Route: GAVAGE, Dose: 0, 400, 800 MG/KG IN CORN OIL 5D/WK FOR 103 WK (STUDY DURATION: 105 WK), Dose: 0, 400, 800 MG/KG IN CORN OIL 5D/WK FOR 103 WK (STUDY DURATION: 105 WK)) “inactive; negative”; (Species: MOUSE, Strain/Sex: B6C3F1/MALE, Route: GAVAGE, Dose: 0, 400, 800 MG/KG IN CORN OIL 5D/WK FOR 103 WK (STUDY DURATION: 105 WK), Dose: 0, 400, 800 MG/KG IN CORN OIL 5D/WK FOR 103 WK (STUDY DURATION: 105 WK)) “inactive; negative”; (Species: RAT, Strain/Sex: F344/FEMALE, Route: GAVAGE, Dose: 0, 100, 200 MG/KG IN CORN OIL 5D/WK FOR 103 WK (STUDY DURATION: 105 WK), Dose: 0, 100, 200 MG/KG IN CORN OIL 5D/WK FOR 103 WK (STUDY DURATION: 105 WK)) “inactive; negative”; (Species: RAT, Strain/Sex: F344/MALE, Route: GAVAGE, Dose: 0, 100, 200 MG/KG IN CORN OIL 5D/WK FOR 103 WK (STUDY DURATION: 105 WK), Dose: 0, 100, 200 MG/KG IN CORN OIL 5D/WK FOR 103 WK (STUDY DURATION: 105 WK), Tumor Site: Type of Lesion: PANCREAS: ACINAR CELL ADENOMA, PANCREAS: ACINAR CELL ADENOMA OR CARCINOMA) “active; positive”.
Consider `CCN(N=O)C(=O)NC`, for which the carcinogen call is, setting by setting: (Species: RAT, Strain/Sex: F344/FEMALE, Route: GAVAGE, Dose: 0, 20, 40 UMOL/WK IN CORN OIL/ETHYL ACETATE (2: 1) FOR 30 WK FOR TOTAL DOSES OF 0, 0.6, 1.2 MMOL (STUDY DURATION: LIFETI, Dose: 0, 20, 40 UMOL/WK IN CORN OIL/ETHYL ACETATE (2: 1) FOR 30 WK FOR TOTAL DOSES OF 0, 0.6, 1.2 MMOL (STUDY DURATION: LIFETI, Tumor Site: Type of Lesion: MAMMARY GLAND: TUMOR, UTERUS: TUMOR) “active; positive”; (Species: RAT, Strain/Sex: F344/FEMALE, Route: ORAL, Dose: 0, 20, 40 UMOL/WK IN DRINKING WATER FOR 30 WK FOR TOTAL DOSES OF 0, 0.6, 1.2 MMOL (STUDY DURATION: LIFETIME), Dose: 0, 20, 40 UMOL/WK IN DRINKING WATER FOR 30 WK FOR TOTAL DOSES OF 0, 0.6, 1.2 MMOL (STUDY DURATION: LIFETIME), Tumor Site: Type of Lesion: LUNG: TUMOR, MAMMARY GLAND: TUMOR, UTERUS: TUMOR, THYROID: FOLLICULAR CELL TUMOR, NERVOUS SYSTEM: TUMOR, Tumor Site: Type of Lesion: LUNG: TUMOR, MAMMARY GLAND: TUMOR, UTERUS: TUMOR, THYROID: FOLLICULAR CELL TUMOR, NERVOUS SYSTEM: TUMOR) “active; positive”; (Species: RAT, Strain/Sex: F344/MALE, Route: GAVAGE, Dose: 0, 20, 40 UMOL/WK IN CORN OIL/ETHYL ACETATE (2: 1) FOR 30 WK FOR TOTAL DOSES OF 0, 0.6, 1.2 MMOL (STUDY DURATION: LIFETI, Dose: 0, 20, 40 UMOL/WK IN CORN OIL/ETHYL ACETATE (2: 1) FOR 30 WK FOR TOTAL DOSES OF 0, 0.6, 1.2 MMOL (STUDY DURATION: LIFETI, Tumor Site: Type of Lesion: LUNG: TUMOR, TESTIS: MESOTHELIOMA, ZYMBAL GLAND: TUMOR, Tumor Site: Type of Lesion: LUNG: TUMOR, TESTIS: MESOTHELIOMA, ZYMBAL GLAND: TUMOR) “active; positive”; (Species: RAT, Strain/Sex: F344/MALE, Route: ORAL, Dose: 0, 20, 40 UMOL/WK IN DRINKING WATER FOR 30 WK FOR TOTAL DOSES OF 0, 0.6, 1.2 MMOL (STUDY DURATION: LIFETIME), Dose: 0, 20, 40 UMOL/WK IN DRINKING WATER FOR 30 WK FOR TOTAL DOSES OF 0, 0.6, 1.2 MMOL (STUDY DURATION: LIFETIME), Tumor Site: Type of Lesion: LUNG: TUMOR, THYROID: FOLLICULAR CELL TUMOR, TESTIS: MESOTHELIOMA, NERVOUS SYSTEM: TUMOR, ZYMBAL GLAND: TUMOR, COLON: TU, Tumor Site: Type of Lesion: LUNG: TUMOR, THYROID: FOLLICULAR CELL TUMOR, TESTIS: MESOTHELIOMA, NERVOUS SYSTEM: TUMOR, ZYMBAL GLAND: TUMOR, COLON: TU) “active; positive”.

Values taken from PubChem BioAssay AID1259411 (Chemical Carcinogenesis Research Information System (CCRIS), 2018).
